What was measured:
Type in all cases: in vivo
[1] = tested on: Setaria viridis (green foxtail); test: greenhouse post-emergence herbicidal test, green foxtail; conditions: for post-emergence action against green foxtail: application rate 0.5 kg/ha a.s.; for post-emergence control of green foxtail: application rate 1.0 kg/ha a.s.
Excerpt: (§1) The culture containers used were plastic flowerpots containing loamy sand with approximately 3.0% of humus as the substrate. The seeds of the test plants were sown separately for each species.
(§2) For the post-emergence treatment, the test plants were first grown to a height of 3 to 15 cm, depending on the plant habit, and only then treated with the active ingredients which had been suspended or emulsified in water. For this purpose, the test plants were either sown directly and grown in the same containers, or they were first grown separately as seedlings and transplanted into the test containers a few days prior to treatment. The rate of application for the post-emergence treatment was 1.0 or 0.5 kg/ha of a.s. (active substance).
(§3) Depending on the species, the plants were kept at 10-25° C. or 20-35° C. The test period extended over 2 to 4 weeks. During this time, the plants were tended, and their response to the individual treatments was evaluated.
(§4) Evaluation was carried out using a scale from 0 to 100. 100 means no emergence of the plants, or complete destruction of at least the aerial parts, and 0 means no damage, or normal course of growth.
(§5) The plants used in the greenhouse experiments belonged to the following species: […]

[2] = tested on: Amaranthus retroflexus (pig weed); test: greenhouse post-emergence herbicidal test, pig weed; conditions: for post-emergence action against pig weed: application rate 0.5 kg/ha a.s.; for post-emergence control of pig weed: application rate 1.0 kg/ha a.s.
Excerpt: as §1, §2, §3, §4, §5

[3] = tested on: Chenopodium album (lambsquarters); test: greenhouse post-emergence herbicidal test, lambsquarters; conditions: for post-emergence action against lambsquarters: application rate 0.5 kg/ha a.s.; for post-emergence control of lambsquarters: application rate 1.0 kg/ha a.s.
Excerpt: as §1, §2, §3, §4, §5

CNC(=O)C(NC(=O)c1ccc(F)cc1C(F)(F)F)C(OC(=O)N(C)C)c1cccs1 (mixture of isomers) [Compound 3.10]
very good: post-emergence action against green foxtail [1] | post-emergence action against pig weed [2] | post-emergence action against lambsquarters [3]

CNC(=O)C(NC(=O)c1ccc(F)cc1C(F)(F)F)C(OC(=O)N(C)C)c1ccsc1 (mixture of isomers) [Compound 3.11]
very good: post-emergence control of green foxtail [1] | post-emergence control of pig weed [2] | post-emergence control of lambsquarters [3]

CNC(=O)C(NC(=O)c1ccccc1C(F)(F)F)C(O)c1ccn(C)n1 (mixture of isomers) [Compound 3.14]
very good: post-emergence control of green foxtail [1] | post-emergence control of pig weed [2] | post-emergence control of lambsquarters [3]

CNC(=O)C(NC(=O)c1ccccc1C(F)(F)F)C(OC(=O)N(C)C)c1ccn(C)n1 (mixture of isomers) [Compound 3.20]
very good: post-emergence control of green foxtail [1] | post-emergence control of pig weed [2] | post-emergence control of lambsquarters [3]

CNC(=O)C(NC(=O)c1ccccc1C(F)(F)F)C(OC(=O)N(C)C)c1ccn(C)n1 (mixture of isomers) [Compound 3.21]
very good: post-emergence action against green foxtail [1] | post-emergence action against pig weed [2] | post-emergence action against lambsquarters [3]

CNC(=O)C(NC(=O)c1ccc(F)cc1C(F)(F)F)C(O)c1ccc(Cl)s1 (mixture of isomers) [Compound 3.28]
very good: post-emergence action against green foxtail [1] | post-emergence action against pig weed [2] | post-emergence action against lambsquarters [3]

CNC(=O)C(NC(=O)c1ccc(F)cc1C(F)(F)F)C(O)c1ccccn1 (mixture of isomers) [Compound 3.36]
very good: post-emergence action against green foxtail [1] | post-emergence action against pig weed [2] | post-emergence action against lambsquarters [3]

CNC(=O)C(NC(=O)c1ccc(F)cc1C(F)(F)F)C(O)c1cccnc1Cl (mixture of isomers) [Compound 3.39]
very good: post-emergence control of green foxtail [1] | post-emergence control of pig weed [2] | post-emergence control of lambsquarters [3]

CNC(=O)C(NC(=O)c1ccc(F)cc1C(F)(F)F)C(O)c1cccnc1Cl (mixture of isomers) [Compound 3.40]
very good: post-emergence control of green foxtail [1] | post-emergence control of pig weed [2] | post-emergence control of lambsquarters [3]

CNC(=O)C(NC(=O)c1ccc(F)cc1C(F)(F)F)C(O)c1ccc[n+]([O-])c1Cl (mixture of isomers) [Compound 3.41]
very good: post-emergence action against green foxtail [1] | post-emergence action against pig weed [2] | post-emergence action against lambsquarters [3]

CNC(=O)C(NC(=O)c1ccc(F)cc1C(F)(F)F)C(OC(C)=O)c1ccccn1 (mixture of isomers) [Compound 3.53]
very good: post-emergence action against green foxtail [1] | post-emergence action against pig weed [2] | post-emergence action against lambsquarters [3]

CNC(=O)C(NC(=O)c1ccc(F)cc1C(F)(F)F)C(OC(=O)N(C)C)c1ccc(Cl)s1 (mixture of isomers) [Compound 3.66]
very good: post-emergence action against green foxtail [1] | post-emergence action against pig weed [2] | post-emergence action against lambsquarters [3]

CNC(=O)C(NC(=O)c1ccc(F)cc1C(F)(F)F)C(OC(=O)N(C)C)c1ccccn1 (mixture of isomers) [Compound 3.69]
very good: post-emergence action against green foxtail [1] | post-emergence action against pig weed [2] | post-emergence action against lambsquarters [3]

CNC(=O)C(NC(=O)c1ccc(F)cc1C(F)(F)F)C(OC(C)=O)c1cccnc1Cl (racemic) [Compound 3.56]
very good: post-emergence action against green foxtail [1] | post-emergence action against pig weed [2] | post-emergence action against lambsquarters [3]

CNC(=O)C(NC(=O)c1ccc(F)cc1C(F)(F)F)C(OC(C)=O)c1cnccc1Cl (racemic) [Compound 3.57]
very good: post-emergence action against green foxtail [1] | post-emergence action against pig weed [2] | post-emergence action against lambsquarters [3]

CNC(=O)C(NC(=O)c1ccc(F)cc1C(F)(F)F)C(OC(C)=O)c1ccncc1Cl (racemic) [Compound 3.59]
very good: post-emergence action against green foxtail [1] | post-emergence action against pig weed [2] | post-emergence action against lambsquarters [3]

CNC(=O)C(NC(=O)c1ccc(F)cc1C(F)(F)F)C(OC(=O)N(C)C)c1cccnc1F (racemic) [Compound 3.71]
very good: post-emergence action against green foxtail [1] | post-emergence action against pig weed [2] | post-emergence action against lambsquarters [3]

CNC(=O)C(NC(=O)c1ccc(F)cc1C(F)(F)F)C(OC(=O)N(C)C)c1cnccc1Cl (racemic) [Compound 3.74]
very good: post-emergence action against green foxtail [1] | post-emergence action against pig weed [2] | post-emergence action against lambsquarters [3]

CNC(=O)C(NC(=O)c1ccc(F)cc1C(F)(F)F)C(OC(=O)N(C)C)c1ccc[n+]([O-])c1Cl (racemic) [Compound 3.75]
very good: post-emergence action against green foxtail [1] | post-emergence action against pig weed [2] | post-emergence action against lambsquarters [3]

CC[Si](CC)(CC)OC(c1ccsc1)C(NC(=O)c1ccc(F)cc1C(F)(F)F)C(=O)NC [Compound 3.13, (2S,3R)-threo-4-Fluoro-N-(1-methylcarbamoyl-2-thiophen-3-yl-2-triethylsilanyloxyethyl)-2-trifluoromethylbenzamide]
very good: post-emergence control of green foxtail [1] | post-emergence control of pig weed [2] | post-emergence control of lambsquarters [3]

CNC(=O)[C@@H](NC(=O)c1ccc(F)cc1C(F)(F)F)C(OC(=O)CSC)c1cccs1 (stereo partly drawn) [Compound 3.63]
very good: post-emergence action against green foxtail [1] | post-emergence action against pig weed [2] | post-emergence action against lambsquarters [3]

CNC(=O)[C@@H](NC(=O)c1ccc(F)cc1C(F)(F)F)C(OC(=O)N(C)C)c1cccs1 (stereo partly drawn) [Compound 3.65]
very good: post-emergence action against green foxtail [1] | post-emergence action against pig weed [2] | post-emergence action against lambsquarters [3]

CC[Si](CC)(CC)OC(c1ccc(Cl)s1)[C@H](NC(=O)c1ccc(F)cc1C(F)(F)F)C(=O)NC (stereo partly drawn) [Compound 3.79]
very good: post-emergence control of green foxtail [1] | post-emergence control of pig weed [2] | post-emergence control of lambsquarters [3]

— US20080103049A1, “Benzoyl-Substituted Serineamides” (BSDG Aktiengesellschaft, priority 2004, published 2008)
